Reference: patent US7387999B2, “Simmondsin for use as angiogenesis inhibitor” (priority 2002, dated 2008)
Like-named read-outs stand apart in the source and are kept apart here. One block for each molecule: values may come before it.

What was measured:
[1] = system: human microvascular endothelial cells (hMVEC); test: in vitro angiogenesis assay: tube formation in 3-D fibrin matrices; assay type: cell-based; conditions: hMVEC on 3-D fibrin matrix, VEGF-A 25 ng/mL and TNFα 10 ng/mL, 7 days, FIG. 8
Method: Human fibrin matrices were prepared by the addition of 0.1 U/ml thrombin to a commercially obtained (Chromogenix AB, Mölndal, Sweden) mixture of 2 mg/ml fibrinogen (final concentrations), 2 mg/ml Na-citrate, 0.8 mg/ml NaCl, 3 μg/ml plasminogen in M199 medium and 2.5 U/ml factor XIII. 100 μl aliquots of this mixture were added to the wells of 96-well plates. After clotting at room temperature, the fibrin matrices were soaked with M199 supplemented with 10% HS and 10% NBCS for 2 h at 37° C. to inactivate the thrombin. […] Invading cells and the formation of tubular structures of hMVEC in the three-dimensional fibrin matrix were analysed by phase contrast microscopy. The total length of tube-like structures of four microscopic fields (7.3 mm^2/field) were (clockwise) measured using an Olympus CK2 microscope equipped with a monochrome CCD camera (MX5) connected to a computer with Optimas image analysis software, and expressed as mm/cm^2 (Koolwijk et al. J. Cell Biol. 1996, 132:1177-188).
HMVEC were cultured on top of a 3-D fibrin matrix in M199, 10% human serum, 10% NBCS supplemented with VEGF-A (25 ng/mL) and TNFα (10 ng/mL) in the presence or absence of the indicated concentrations (w/v) of the compositions A1, A2, A3, A4, A5, B4, B5 and B6. […] The data are expressed as the mean of two wells indicated by the error bars (FIG. 8 B).

[2] = target: T1, human oestrogen receptor (Homo sapiens, UniProt P03372); test: oestrogenic bioassay; assay type: cell-based; conditions: yeast with human oestrogen receptor; 1, 10, 100, 1000 μM; 3 days; compared to 17 beta-oestradiol standards, FIG. 11
T1 construct: expressed in transfected cells; host or cells: Saccharomyces cerevisiae (recombinant yeast)
T1 sequence (P03372 1-595): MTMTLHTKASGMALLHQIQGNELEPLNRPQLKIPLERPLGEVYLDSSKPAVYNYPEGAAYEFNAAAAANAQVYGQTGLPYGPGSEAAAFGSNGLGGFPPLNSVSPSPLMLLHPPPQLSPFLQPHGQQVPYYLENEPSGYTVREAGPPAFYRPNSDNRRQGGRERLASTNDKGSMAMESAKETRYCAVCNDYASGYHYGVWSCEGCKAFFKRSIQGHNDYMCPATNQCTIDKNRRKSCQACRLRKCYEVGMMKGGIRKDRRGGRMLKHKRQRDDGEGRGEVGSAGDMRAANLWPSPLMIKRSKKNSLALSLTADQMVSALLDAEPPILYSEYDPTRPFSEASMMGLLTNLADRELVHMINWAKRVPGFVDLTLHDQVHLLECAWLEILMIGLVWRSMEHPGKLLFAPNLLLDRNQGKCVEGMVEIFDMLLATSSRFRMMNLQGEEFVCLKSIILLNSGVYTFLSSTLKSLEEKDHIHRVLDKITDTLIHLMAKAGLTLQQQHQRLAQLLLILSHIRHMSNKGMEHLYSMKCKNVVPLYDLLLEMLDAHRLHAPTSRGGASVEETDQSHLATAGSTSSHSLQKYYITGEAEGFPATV
Method: In an experiment, yeast cells (Saccharomyces cerevisiae) containing a human oestrogen receptor (100 μl) was added to 25 ml growth medium. The growth medium comprised • D-glucose (2.5 ml from 20 g D-glucose in 80 ml water); • L-aspartic acid (0.625 ml from 400 mg in 100 ml water); • vitamin solution (0.250 ml from 8 mg thiamine, 8 mg pyridoxine, 8 mg panthotenic acid, 40 mg inositol and 20 ml biotin solution (2 mg in 100 ml water) in 180 ml water); • L-threonine (0.2 ml from 2.4 g in 100 ml water), copper(II)sulphate (0.0625 ml from 160 mg in 50 ml water); • minimal medium (22.5 ml from 1 l water composed of 13.61 g potassium dihydrogenphosphate, 1.98 g ammonium sulphate, 4.2 g potassium hydroxide, 1 ml iron(III)sulphate (40 mg in 50 ml water), 50 mg L-leucine, 50 mg L-histidine, 50 mg adenine, 20 mg L-arginine hydrochloride, 20 mg L-methionine, 30 mg L-tyrosine, 30 mg L-isoleucine, 30 mg L-lysine hydrochloride, 25 mg L-phenylalanine, 100 mg L-glutamic acid, 150 mg L-valine, 375 mg L-serine); and chlorophenol red beta-D-galactopyranoside (0.250 ml).
17 beta-oestradiol (20 μl aliquots from 0.008 nM to 100 nM, prepared from 10 mg in 10 ml ethanol) and test compounds, in concentrations of 1, 10, 100, 1000 μM, were pipetted into 96-well plates in a sterile flow hood. The solvent was left to evaporate for about 40 min.
The growth medium containing yeast was dispensed to all wells, except blank wells, in aliquots of 100 μl. The plates were incubated at 32° C. in a humidified atmosphere for 3 days, and then read at 540/360 nm by a microtiter plate reader (labsystems Muliskan Ascent Reader, Thermo labsystems, Vantaa, Finland).

[3] = system: angiogenesis; conditions: in vitro and in vivo assays
[4] = system: chorion allantois membrane (CAM); test: chorion allantois membrane (CAM) assay; assay type: in vivo, chicken; conditions: for effect on blood vessel growth in the CAM (in words): Experiment 1
Method: Fertilized chicken eggs are incubated during 4 days at 37° C. Subsequently, the egg shell is opened to disclose the CAM. In order to reduce the pressure on the CAM for improving its manipulating properties, 2 to 3 ml albumen is removed. The opening is closed using cellophane tape and the eggs are further incubated until day 9 for application of the liquid test compounds using different concentrations. Dulbecco's modified Eagle medium (DMEM) was used as a negative control, whereas Vascular Endothelial Growth factor (VEGF) was used as a positive control (stimulator of angiogenesis). A total polar extract from refined, de-oiled jojoba flour, dimethylsimmondsin purified from this extract and a commercially known angiogenesis inhibitor (Tangeritin) were compared in their angiogenesis-inhibiting activity towards VEGF stimulated angiogenesis in the CAM's. Each of these solubilized test compositions was pipetted on a sterile plastic disc (10 mm diameter) and dried under sterile conditions.
Each disc was treated with cortisone acetate (100 μg/50 μl) in order to avoid inflammatory reactions. After drying, the discs were placed on the CAM with the charged side facing the CAM. The control disc (DMEM) was placed at 1 cm of the disc containing the test component. The opening was sealed with cellophane tape and the eggs were further incubated. At day 11, the tape and discs were removed and 10% buffered formaline was sprayed over the CAM. Eggs were allowed to dry for 2 to 4 h at room T°. Then, the CAM was cut out of the egg and mounted on a glass slide. The vascular density index is measured according to Harris-Hooker et al. (1983; J. Cell. Physiol. 114:302-310); all micro vessels that cross 3 concentric circles with a diameter of 6, 8 and 10 mm were counted, as illustrated on FIG. 2.
The angiogenetic Index (AI) is expressed as {(t/c)×100}−100, whereby t=total number of crossing vessels where the disc containing the test component was located, and c=total number of crossing vessels where the control disc was located. […]

oestrogen-like activity [2]: no significant oestrogen-like activity
Molecule: N#CC=C1CC(O)C(O)C(O)C1O[C@@H]1O[C@H](CO)[C@@H](O)[C@H](O)[C@H]1O (stereo partly shown) [B5, 4,5-didesmethylsimmondsin]
inhibition of VEGF-induced in vitro tube formation [1]: highest biological activity

oestrogen-like activity [2]: no significant oestrogen-like activity
Molecule: CO[C@H]1[C@@H](O)C[C@@H](O[C@@H]2O[C@H](CO)[C@@H](O)[C@H](O)[C@H]2O)/C(=C\C#N)[C@@H]1O [5-desmethylsimmondsin]

Molecule: 4,5-dimethylsimmondsin ferulate (cis/trans) [A5]
angiogenesis-inhibiting activity (overall conclusion) [3]: higher angiogenesis-inhibiting activity than the unsubstituted dimethylsimmondsin | angiogenesis-inhibiting activity (overall conclusion) ([3]; listed as dimethylsimmondsin ferulates): significant angiogenesis-inhibiting activity, which is higher than the activity of unsubstituted dimethylsimmondsin

oestrogen-like activity [2]: no significant oestrogen-like activity
Molecule: COC1CC(OC2OC(CO)C(O)C(O)C2O)C(=CC#N)C(O)C1O (stereo not shown) [4-desmethylsimmondsin]

Molecule: VEGF [reference compound]
effect on blood vessel growth in the CAM (in words) [4]: significant blood vessel growth compared with the negative control group (DMEM)

Molecule: COc1cc(C=CC(=O)OC2C(OC3CC(OC)C(OC)C(O)C3=CC#N)OC(CO)C(O)C2O)ccc1O (stereo not shown) [E simmondsin-2′-ferulate]
oestrogen-like activity [2]: no significant oestrogen-like activity

Molecule: COc1cc(/C=C\C(=O)O[C@@H]2[C@@H](O[C@@H]3C[C@H](OC)[C@H](OC)[C@@H](O)/C3=C/C#N)O[C@@H](CO)[C@H](O)[C@H]2O)ccc1O [Z simmondsin-2′-ferulate]
oestrogen-like activity [2]: no significant oestrogen-like activity

Molecule: desmethylsimmondsin
inhibition of VEGF-induced in vitro tube formation [1]: highest biological activity

oestrogen-like activity [2]: no significant oestrogen-like activity
Molecule: 4,5-dimethylsimmondsin [A4]
effect on blood vessel growth in the CAM (in words) [4]: significant angiogenesis inhibition comparable with tangeritin | angiogenesis-inhibiting activity in the CAM (in words) ([4]; Experiments 2 and 3, A4 in the same concentration as the total polar extract): lower than the total polar extract but nevertheless still significant
